“And” between values parts separate entries of the source, which are not always exact repeats. Equal values may be shown once.
Experiments:
MDA-MB-231 [1] = conditions: incubation time: 72 h
Experimental: (§1)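 MDA-MB-231 breast cancer cells were transfected with siBRCA1 or non-targeting siControl, then seeded 24 h later at 4000 cells/well in 384-well plates holding 198 drugs at 5 concentrations. Viability was read by CellTiter-Blue after 72 h at 37 °C. Dose-response curves were fitted in Dotmatics to give IC50 and a drug sensitivity score (DSS: area under the curve relative to the area between the 10% threshold and 100% inhibition, normalised by the log of the top response). The dose range is not stated. IC50 values of 8333.3 or 4166.7 nM mark no response (top dose), and 0.8333 nM is the lower limit.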

MDA-MB-231 [2] = assay: drug sensitivity score (DSS); higher = more sensitive; extreme values may be limits of the assay; conditions: incubation time: 72 h
Experimental: as §1

[3] = siRNA: siControl (non-targeting)

SMILES | IC50 of cell viability (MDA-MB-231 [1]; siRNA: siBRCA1) [nM] | IC50 of cell viability (MDA-MB-231 [1]; [3]) | drug sensitivity score (MDA-MB-231 [2]; siRNA: siBRCA1) | drug sensitivity score (MDA-MB-231 [2]; [3])
Nc1ccn([C@@H]2O[C@H](CO)[C@@H](O)C2(F)F)c(=O)n1 [Gemcitabine] | 2490 | 78.7 nM | 7.87 | 12.8
O=C(/C=C/c1cccc(S(=O)(=O)Nc2ccccc2)c1)NO [Belinostat] | 757 | 668 nM | 12.2 | 12.9
CCNC(=O)CCC/C=C\C[C@@H]1[C@@H](/C=C/[C@@H](O)CCc2ccccc2)[C@H](O)C[C@@H]1O [Bimatoprost] | > 4170 | > 4170 nM | 0 | 0
NC(=O)NO [Hydroxyurea] | > 4170 | > 4170 nM | 0 | 0
CC(=O)Nc1cccc(-n2c(=O)n(C3CC3)c(=O)c3c(Nc4ccc(I)cc4F)n(C)c(=O)c(C)c32)c1 | 2.46 | 2.21 nM | 22 | 22.5
C/C(=C\c1csc(C)n1)[C@@H]1C[C@@H]2O[C@]2(C)CCC[C@H](C)[C@H](O)[C@@H](C)C(=O)C(C)(C)[C@@H](O)CC(=O)O1 [Epothilone B (Patupilone)] | 29.4 | 29.1 nM | 23.4 | 23.6
O=P1(N(CCCl)CCCl)NCCCO1 (stereo not given) [Cyclophosphamide] | > 4170 | > 4170 nM | 0.0343 | 0
Cc1c(N)nc([C@H](CC(N)=O)NC[C@H](N)C(N)=O)nc1C(=O)N[C@H](C(=O)N[C@H](C)[C@@H](O)[C@H](C)C(=O)N[C@H](C(=O)NCCc1nc(-c2nc(C(=O)NCCC[S+](C)C)cs2)cs1)[C@@H](C)O)[C@@H](OC1OC(CO)C(O)C(O)C1OC1OC(CO)C(O)C(OC(N)=O)C1O)c1cnc[nH]1 (stereo not given in full) [Bleomycin] | > 4170 | 125 nM | 0 | 3.28
O=C(O)CCCc1ccc(N(CCCl)CCCl)cc1 [Chlorambucil] | > 4170 | > 4170 nM | 0.465 | 0
O=NN(CCCl)C(=O)NCCCl [Carmustine] | > 4170 | > 4170 nM | 0 | 0
CCc1c2c(nc3ccc(OC(=O)N4CCC(N5CCCCC5)CC4)cc13)-c1cc3c(c(=O)n1C2)COC(=O)[C@]3(O)CC [Irinotecan] | 760 | 576 nM | 6.18 | 3.11
CC(=O)O[C@@]12CO[C@@H]1C[C@H](O)[C@@]1(C)C(=O)[C@H](O)C3=C(C)[C@@H](OC(=O)[C@H](O)[C@@H](NC(=O)OC(C)(C)C)c4ccccc4)C[C@@](O)([C@@H](OC(=O)c4ccccc4)[C@H]21)C3(C)C [Docetaxel] | 2.71 | 1.57 nM and 1.83 nM | 32.7 and 31.2 | 33.3 and 33.8
Cc1ccc(-c2cc(C(F)(F)F)nn2-c2ccc(S(N)(=O)=O)cc2)cc1 [Celecoxib] | 1350 | > 4170 nM | 3.29 | 0
C=C(c1ccc(C(=O)O)cc1)c1cc2c(cc1C)C(C)(C)CCC2(C)C [Bexarotene] | > 4170 | > 4170 nM | 0 | 0
CCC/C=C/C=C/C(=O)O[C@H]1/C(=C/C(=O)OC)C[C@H]2C[C@H]([C@@H](C)O)OC(=O)C[C@H](O)C[C@@H]3C[C@H](OC(C)=O)C(C)(C)[C@](O)(C[C@@H]4C/C(=C/C(=O)OC)C[C@H](/C=C/C(C)(C)[C@]1(O)O2)O4)O3 [Bryostatin 1] | 83.3 | 83.3 nM | 0 | 0
CNCc1ccc(-c2[nH]c3cc(F)cc4c3c2CCNC4=O)cc1 | > 4170 | > 4170 nM | 0 | 0
CC(C)C(=O)Nc1ccc([N+](=O)[O-])c(C(F)(F)F)c1 [Flutamide] | > 4170 | > 4170 nM | 0 | 0
COc1cccc2c1C(=O)c1c(O)c3c(c(O)c1C2=O)C[C@@](O)(C(C)=O)C[C@@H]3O[C@H]1C[C@H](N)[C@H](O)[C@H](C)O1 [Daunorubicin] | 159 | 52.2 nM | 19.8 | 24.9
CN(C)C[C@@H]1CCn2cc(c3ccccc32)C2=C(C(=O)NC2=O)c2cn(c3ccccc23)CCO1 | 2720 | 3770 nM | 5.43 | 4.41

Now from value to compound, other results behind:

IC50 of cell viability (MDA-MB-231 [1]; siRNA: siBRCA1) [nM] | IC50 of cell viability (MDA-MB-231 [1]; [3]) | SMILES | drug sensitivity score (MDA-MB-231 [2]; siRNA: siBRCA1) | drug sensitivity score (MDA-MB-231 [2]; [3])
46.8 | 26.6 nM | CCNC(=O)c1noc(-c2cc(C(C)C)c(O)cc2O)c1-c1ccc(CN2CCOCC2)cc1 [NVP-AUY922] | 19.6 | 23
79.4 | 30.5 nM | Cn1cncc1[C@@](N)(c1ccc(Cl)cc1)c1ccc2c(c1)c(-c1cccc(Cl)c1)cc(=O)n2C [Tipifarnib] | 12.8 | 14.1
729 | 273 nM | CCCCC(=O)OCC(=O)[C@]1(O)Cc2c(O)c3c(c(O)c2[C@@H](O[C@H]2C[C@H](NC(=O)C(F)(F)F)[C@H](O)[C@H](C)O2)C1)C(=O)c1c(OC)cccc1C3=O [Valrubicin] | 9.56 | 12.5
> 4170 | > 4170 nM | CCCS(=O)(=O)Nc1ccc(F)c(C(=O)c2c[nH]c3ncc(-c4ccc(Cl)cc4)cc23)c1F [PLX4032] | 0 | 0
> 4170 | > 4170 nM | C[C@]1(O)C[C@@H](c2nc(-c3ccc4ccc(-c5ccccc5)nc4c3)c3c(N)nccn32)C1 [OSI-906] | 0 | 0
0.904 | < 0.833 nM | CO[C@H]1C[C@@H]2CC[C@@H](C)[C@@](O)(O2)C(=O)C(=O)N2CCCC[C@H]2C(=O)O[C@H]([C@H](C)C[C@@H]2CC[C@@H](O)[C@H](OC)C2)CC(=O)[C@H](C)/C=C(\C)[C@@H](O)[C@@H](OC)C(=O)[C@H](C)C[C@H](C)/C=C/C=C/C=C/1C [Rapamycin (Sirolimus)] | 15.5 | 15.3
92.2 | 146 nM | COc1cc(F)c(F)c(Nc2ccc(I)cc2F)c1NS(=O)(=O)C1(C[C@H](O)CO)CC1 [RDEA119 (Refametinib)] | 14.9 | 12.3
> 4170 | > 4170 nM | CC1CCN(C(=O)CC#N)CC1N(C)c1ncnc2[nH]ccc12 (stereo in doubt) [Tasocitinib] | 0 | 0
> 4170 | 1130 nM | COc1cc2c(N3CCN(C(=O)Nc4ccc(OC(C)C)cc4)CC3)ncnc2cc1OCCCN1CCCCC1 [Tandutinib] | 0.708 | 3.18
> 4170 | > 4170 nM | N#Cc1ccc(C(c2ccc(C#N)cc2)n2cncn2)cc1 [Letrozole] | 0 | 0
> 4170 | > 4170 nM | C[C@]1(c2nc3c(C(N)=O)cccc3[nH]2)CCCN1 [Veliparib] | 0 | 0
> 4170 | > 4170 nM | C[C@]12C=CC(=O)C=C1CC[C@@H]1[C@@H]2[C@@H](O)C[C@@]2(C)[C@H]1CC[C@]2(O)C(=O)CO [Prednisolone] | 0 | 0
2840 | 1980 nM | COc1cc([C@@H]2c3cc4c(cc3[C@@H](O[C@@H]3O[C@@H]5CO[C@@H](c6cccs6)O[C@H]5[C@H](O)[C@H]3O)[C@H]3COC(=O)[C@H]23)OCO4)cc(OC)c1O [Teniposide] | 5.24 | 7.09
> 4170 | > 4170 nM | OC[C@H]1O[C@@H](n2cnc3c2N=CNC[C@H]3O)C[C@@H]1O [Pentostatin] | 0 | 0
67.9 | 56 nM | CO[C@H](C(=O)[C@@H](O)[C@@H](C)O)[C@@H]1Cc2cc3cc(O[C@H]4C[C@@H](O[C@@H]5C[C@@H](O)[C@H](O)[C@@H](C)O5)[C@H](O)[C@@H](C)O4)c(C)c(O)c3c(O)c2C(=O)[C@H]1O[C@H]1C[C@@H](O[C@@H]2C[C@@H](O)[C@@H](O[C@@H]3C[C@](C)(O)[C@H](O)[C@@H](C)O3)[C@@H](C)O2)[C@H](O)[C@@H](C)O1 [Plicamycin] | 23.4 | 24.2
> 4170 | > 4170 nM | CC1=C(/C=C/C(C)=C/C=C/C(C)=C/C(=O)O)C(C)(C)CCC1 [Tretinoin] | 0.0479 | 0

Source: the supplement of paper PMC4649846
